Measured values taken from patent US7595401B2, “Therapeutic compounds and their use in cancer” (Myriad Pharmaceuticals, Inc., priority 2006, dated 2009).

Each compound was assayed on purified human Hsp90 (assay: Binding Assay: fluorescence polarization with BODIPY-labeled geldanamycin). Conditions: 5 μM compound, BODIPY-GM 10 nM, Hsp90 30 nM.
Summary of the method: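 Fluorescence polarization competition with BODIPY-geldanamycin (10 nM final) and human Hsp90 (30 nM final) in HEPES-KOH pH 7.3 buffer with molybdate, NP-40, DTT; 2% DMSO, overnight at room temperature. Read 485/530 nm; percent inhibition from mP normalized to DMSO controls, fluorescent-compound points excluded.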

| % Inhibition at 5 μM Compound Concentration | Compound |
| --- | --- |
| 0.0% | Nc1ncn(CCc2ccccc2Cl)c2nc(Sc3ccc4c(c3)OC(F)(F)O4)nc1-2 [Example 295, 3-[2-(2-Chlorophenyl)ethyl]-8-[(2,2-difluoro-1,3-benzodioxol-5-yl)thio]-3H-purin-6-amine] |
| 29.0% | COc1ccc(C#N)cc1Sc1nc2c(N)ncn(CCc3ccccc3)c-2n1 [Example 305, 3-{[6-Amino-3-(2-phenylethyl)-3H-purin-8-yl]thio}-4-methoxybenzonitrile] |
| 40.0% | COc1ccc(C#N)cc1Sc1nc2c(N)ncn(CCc3ccccc3Cl)c-2n1 [Example 307, 3-({6-Amino-3-[2-(2-chlorophenyl)ethyl]-3H-purin-8-yl}thio)-4-methoxybenzonitrile] |
| 3.0% | COc1ccc(F)cc1Sc1nc2c(N)ncn(CCc3ccccc3)c-2n1 [Example 313, 8-[(5-Fluoro-2-methoxyphenyl)thio]-3-(2-phenylethyl)-3H-purin-6-amine] |
| 21.0% | COc1ccc(C)cc1Sc1nc2c(N)ncn(CCc3ccccc3)c-2n1 [Example 315, 8-[(2-Methoxy-5-methylphenyl)thio]-3-(2-phenylethyl)-3H-purin-6-amine] |
| 0.0% | COc1ccc(F)cc1Sc1nc2c(N)ncn(CCc3ccccc3Cl)c-2n1 [Example 317, 3-[2-(2-Chlorophenyl)ethyl]-8-[(5-fluoro-2-methoxyphenyl)thio]-3H-purin-6-amine] |
| 27.0% | COc1ccc([N+](=O)[O-])cc1Sc1nc2c(N)ncn(CCc3ccccc3Cl)c-2n1 [Example 319, 3-[2-(2-Chlorophenyl)ethyl]-8-[(2-methoxy-5-nitrophenyl)thio]-3H-purin-6-amine] |
| 0.0% | COc1ccc(I)c(Sc2nc3c(N)ncn(CCc4ccccc4)c-3n2)c1 [Example 323, 8-[(2-Iodo-5-methoxyphenyl)thio]-3-(2-phenylethyl)-3H-purin-6-amine] |
| 0.0% | COc1ccc(C)cc1Sc1nc2c(N)ncn(CCc3ccccc3Cl)c-2n1 [Example 325, 3-[2-(2-Chlorophenyl)ethyl]-8-[(2-methoxy-5-methylphenyl)thio]-3H-purin-6-amine] |
| 33.0% | N#Cc1cc2c(cc1Sc1nc3c(N)ncn(CCc4ccccc4Cl)c-3n1)OCO2 [Example 327, 6-({6-Amino-3-[2-(2-chlorophenyl)ethyl]-3H-purin-8-yl}thio)-1,3-benzodioxole-5-carbonitrile] |

The next lines start with the compound.

| Compound | % Inhibition at 5 μM Compound Concentration |
| --- | --- |
| Nc1ncn(CCc2ccccc2C(F)(F)F)c2nc(Sc3cc4c(cc3Br)OCO4)nc1-2 [Example 291, 8-[(6-Bromo-1,3-benzodioxol-5-yl)thio]-3-{2-[2-(trifluoromethyl)phenyl]ethyl}-3H-purin-6-amine] | 0.0% |
| Nc1ncn(CCc2ccccc2)c2nc(Sc3ccc4c(c3)OC(F)(F)O4)nc1-2 [Example 293, 8-[(2,2-Difluoro-1,3-benzodioxol-5-yl)thio]-3-(2-phenylethyl)-3H-purin-6-amine] | 0.0% |
| COc1ccc(CCn2cnc(N)c3nc(Sc4cc5c(cc4Br)OCO5)nc2-3)cc1OC [Example 297, 8-[(6-Bromo-1,3-benzodioxol-5-yl)thio]-3-[2-(3,4-dimethoxyphenyl)ethyl]-3H-purin-6-amine] | 8.0% |
| COc1cccc(Sc2nc3c(N)ncn(CC(=O)c4ccccc4)c-3n2)c1 [Example 299, 2-{6-Amino-8-[(3-methoxyphenyl)thio]-3H-purin-3-yl}-1-phenylethanone] | 0.0% |
| Nc1ncn(CCc2ccc(O)cc2)c2nc(Sc3cc4c(cc3Br)OCO4)nc1-2 [Example 301, 4-(2-{6-Amino-8-[(6-bromo-1,3-benzodioxol-5-yl)thio]-3H-purin-3-yl}ethyl)phenol] | 5.0% |
| Nc1ncn(CCc2ccc3ccccc3c2)c2nc(Sc3cc4c(cc3Br)OCO4)nc1-2 [Example 303, 8-[(6-Bromo-1,3-benzodioxol-5-yl)thio]-3-[2-(2-naphthyl)ethyl]-3H-purin-6-amine] | 21.0% |
| COc1cccc(CCn2cnc(N)c3nc(Sc4cc5c(cc4Br)OCO5)nc2-3)c1 [Example 309, 8-[(6-Bromo-1,3-benzodioxol-5-yl)thio]-3-[2-(3-methoxyphenyl)ethyl]-3H-purin-6-amine] | 25.0% |
| COc1ccc(I)c(Sc2nc3c(N)ncn(CCc4ccc(I)cc4)c-3n2)c1 [Example 311, 8-[(2-Iodo-5-methoxyphenyl)thio]-3-[2-(4-iodophenyl)ethyl]-3H-purin-6-amine] | 0.0% |
| N#Cc1cc2c(cc1Sc1nc3c(N)ncn(CCc4ccccc4)c-3n1)OCO2 [Example 321, 6-{[6-Amino-3-(2-phenylethyl)-3H-purin-8-yl]thio}-1,3-benzodioxole-5-carbonitrile] | 49.0% |

Same assay, conditions: BODIPY-GM 10 nM, Hsp90 30 nM

| IC50 | Compound |
| --- | --- |
| 4000 nM | COc1cccc(Sc2nc3c(N)ncn(CCc4ccccc4)c-3n2)c1 [Example 288, 8-[(3-Methoxyphenyl)thio]-3-(2-phenylethyl)-3H-purin-6-amine] |
| > 25000 nM | COc1ccc(C#N)cc1Sc1nc2c(N)ncnc2n1CCc1ccccc1Cl [Example 306, 3-({6-Amino-9-[2-(2-chlorophenyl)ethyl]-9H-purin-8-yl}thio)-4-methoxybenzonitrile] |
| 18000 nM | COc1ccc(F)cc1Sc1nc2c(N)ncnc2n1CCc1ccccc1Cl [Example 316, 9-[2-(2-Chlorophenyl)ethyl]-8-[(5-fluoro-2-methoxyphenyl)thio]-9H-purin-6-amine] |
| 7000 nM | COc1ccc([N+](=O)[O-])cc1Sc1nc2c(N)ncnc2n1CCc1ccccc1Cl [Example 318, 9-[2-(2-Chlorophenyl)ethyl]-8-[(2-methoxy-5-nitrophenyl)thio]-9H-purin-6-amine] |
| 2800 nM | COc1ccc(C)cc1Sc1nc2c(N)ncnc2n1CCc1ccccc1Cl [Example 324, 9-[2-(2-Chlorophenyl)ethyl]-8-[(2-methoxy-5-methylphenyl)thio]-9H-purin-6-amine] |

More lines, now with the values behind:

| Compound | IC50 |
| --- | --- |
| Nc1ncnc2c1nc(Sc1ccc3c(c1)OCO3)n2CCc1ccccc1Cl [Example 289, 8-(1,3-Benzodioxol-5-ylthio)-9-[2-(2-chlorophenyl)ethyl]-9H-purin-6-amine] | 1600 nM |
| Nc1ncnc2c1nc(Sc1cc3c(cc1Br)OCO3)n2CCc1ccccc1C(F)(F)F [Example 290, 8-[(6-Bromo-1,3-benzodioxol-5-yl)thio]-9-{2-[2-(trifluoromethyl)phenyl]ethyl}-9H-purin-6-amine] | 70 nM |
| Nc1ncnc2c1nc(Sc1ccc3c(c1)OC(F)(F)O3)n2CCc1ccccc1 [Example 292, 8-[(2,2-Difluoro-1,3-benzodioxol-5-yl)thio]-9-(2-phenylethyl)-9H-purin-6-amine] | > 25000 nM |
| Nc1ncnc2c1nc(Sc1ccc3c(c1)OC(F)(F)O3)n2CCc1ccccc1Cl [Example 294, 9-[2-(2-Chlorophenyl)ethyl]-8-[(2,2-difluoro-1,3-benzodioxol-5-yl)thio]-9H-purin-6-amine] | > 25000 nM |
| COc1ccc(CCn2c(Sc3cc4c(cc3Br)OCO4)nc3c(N)ncnc32)cc1OC [Example 296, 8-[(6-Bromo-1,3-benzodioxol-5-yl)thio]-9-[2-(3,4-dimethoxyphenyl)ethyl]-9H-purin-6-amine] | 350 nM |
| COc1cccc(Sc2nc3c(N)ncnc3n2CC(=O)c2ccccc2)c1 [Example 298, 2-{6-Amino-8-[(3-methoxyphenyl)thio]-9H-purin-9-yl}-1-phenylethanone] | > 25000 nM |
| Nc1ncnc2c1nc(Sc1cc3c(cc1Br)OCO3)n2CCc1ccc(O)cc1 [Example 300, 4-(2-{6-Amino-8-[(6-bromo-1,3-benzodioxol-5-yl)thio]-9H-purin-9-yl}ethyl)phenol] | 400 nM |
| Nc1ncnc2c1nc(Sc1cc3c(cc1Br)OCO3)n2CCc1ccc2ccccc2c1 [Example 302, 8-[(6-Bromo-1,3-benzodioxol-5-yl)thio]-9-[2-(2-naphthyl)ethyl]-9H-purin-6-amine] | > 25000 nM |
| COc1ccc(C#N)cc1Sc1nc2c(N)ncnc2n1CCc1ccccc1 [Example 304, 3-{[6-Amino-9-(2-phenylethyl)-9H-purin-8-yl]thio}-4-methoxybenzonitrile] | > 25000 nM |
| COc1cccc(CCn2c(Sc3cc4c(cc3Br)OCO4)nc3c(N)ncnc32)c1 [Example 308, 8-[(6-Bromo-1,3-benzodioxol-5-yl)thio]-9-[2-(3-methoxyphenyl)ethyl]-9H-purin-6-amine] | 180 nM |
| COc1ccc(I)c(Sc2nc3c(N)ncnc3n2CCc2ccc(I)cc2)c1 [Example 310, 8-[(2-Iodo-5-methoxyphenyl)thio]-9-[2-(4-iodophenyl)ethyl]-9H-purin-6-amine] | > 25000 nM |
| COc1ccc(F)cc1Sc1nc2c(N)ncnc2n1CCc1ccccc1 [Example 312, 8-[(5-Fluoro-2-methoxyphenyl)thio]-9-(2-phenylethyl)-9H-purin-6-amine] | > 25000 nM |
| COc1ccc(C)cc1Sc1nc2c(N)ncnc2n1CCc1ccccc1 [Example 314, 8-[(2-Methoxy-5-methylphenyl)thio]-9-(2-phenylethyl)-9H-purin-6-amine] | 6800 nM |
| N#Cc1cc2c(cc1Sc1nc3c(N)ncnc3n1CCc1ccccc1)OCO2 [Example 320, 6-{[6-Amino-9-(2-phenylethyl)-9H-purin-8-yl]thio}-1,3-benzodioxole-5-carbonitrile] | 240 nM |
| COc1ccc(I)c(Sc2nc3c(N)ncnc3n2CCc2ccccc2)c1 [Example 322, 8-[(2-Iodo-5-methoxyphenyl)thio]-9-(2-phenylethyl)-9H-purin-6-amine] | 100 nM |
| N#Cc1cc2c(cc1Sc1nc3c(N)ncnc3n1CCc1ccccc1Cl)OCO2 [Example 326, 6-({6-Amino-9-[2-(2-chlorophenyl)ethyl]-9H-purin-8-yl}thio)-1,3-benzodioxole-5-carbonitrile] | 35 nM |
